According to patent US7786040B2, “4-cyclopropyl-1,2,3,-thiadiazole compound, agrohorticultural plant disease controlling agent and method of using the same” (Nihon Nohyaku Co., Ltd., priority 2005, dated 2010):

What was measured:
[1] = tested on: powdery mildew fungus (Blumeria graminis); assay: Test Example 1: controlling effect by seed dressing against wheat powdery mildew; assay type: in vivo; conditions: 0.15% active ingredient based on weight of dry seeds, inoculated 25 days after sowing, investigated 7 days after inoculation
Source text: (§1) Seeds of wheat (cultivar: chihoku komugi) and a wettable powder prepared according to Formulation Example were placed in a vinyl bag, followed by adding thereto a small volume of water, and they were mixed to conduct seed dressing. On the day after this treatment, the seeds sowed in a plastic pot of 10 cm diameter, and cultivated in a greenhouse. Twenty five days after sowing, the seedlings thus obtained were inoculated with powdery mildew fungus (Blumeria graminis) by sprinkling. Seven days after inoculation, the seedlings were investigated and infection index was estimated according to the criterion shown below, after which the control efficacy (%) was calculated. In this occasion, infection index on the untreated plot was 8.0. As comparative examples, the following compounds described in JP-A-2001-10909 were evaluated. • I: 3′-chloro-4,4′-dimethyl-1,2,3-thiadiazole-5-carboxanilide • II: benzyl 4-isopropyl-1,2,3-thiadiazole-5-carboxylate • III: methyl 4-cyclopropyl-1,2,3-thiadiazole-5-carboxylate • IV: 4-cyclopropyl-1,2,3-thiadiazole-5-carboxylic acid Infection Index • 0: No infection. • 0.5: Lesion area percentage: less than 10% • 1: Lesion area percentage; 10 to less than 20% • 2: Lesion area percentage; 20 to less than 30% • 3: Lesion area percentage; 30 to less than 40% • 4: Lesion area percentage; 40 to less than 50% • 5: Lesion area percentage; 50 to less than 60% • 6: Lesion area percentage; 60 to less than 70% • 7: Lesion area percentage; 70 to less than 80% • 8: Lesion area percentage; 80 to less than 90% • 9: Lesion area percentage; 90 to less than 100% • 10: Lesion area percentage; 100% Control efficacy (%)={1-(infection index on treated plot/infection index on untreated plot)}×100 Rank of Control Efficacy • A: Control efficacy 100-90% • B: Control efficacy 89-80% • C: Control efficacy 79-60% • D: Control efficacy 59-0%

[2] = tested on: powdery mildew fungus (Blumeria graminis); assay: Test Example 2: controlling effect by seed dressing against wheat powdery mildew, long-lasting effect; assay type: in vivo; conditions: 0.15% active ingredient based on weight of dry seeds, inoculated 50 days after sowing, investigated 7 days after inoculation
Source text: as §1
Seeds of wheat (cultivar: Chihoku Komugi) and a wettable powder prepared according to Formulation Example were placed in a vinyl bag, followed by adding thereto a small volume of water, and they were mixed to conduct seed dressing. On the day after this treatment, the seeds sowed in a plastic pot of 10 cm diameter, and cultivated in a greenhouse. Fifty days after sowing, the seedlings thus obtained were inoculated with powdery mildew fungus (Blumeria graminis) by sprinkling. Seven days after inoculation, the seedlings were investigated and infection index was estimated according to the criterion shown below, after which the control efficacy (%) was calculated. In this occasion, infection index on the untreated plot was 8.0. As comparative examples, the above-described compounds I, II, III and IV were evaluated.

Row | Structure (SMILES) | Rank of control efficacy [1] | Rank of control efficacy [2]
1 | CC(C)(C)OC(=O)c1ccc(COC(=O)c2snnc2C2CC2)cc1 [1-25] | B or more | 
2 | CN(C)c1ccncc1.COc1ccc2nc(NC(=O)c3snnc3C3CC3)sc2c1 [1-181] | B or more | 
3 | COc1ccc(NC(=S)c2snnc2C2CC2)c(OC)c1 [1-144] | B or more | B or more
4 | Cc1ccc(CNC(=O)c2snnc2C2CC2)c(C)c1 [1-162] | B or more | 
5 | COc1ccc(COC(=O)c2snnc2C2CC2)cc1 [1-18] | B or more | B or more
6 | COc1ccc(NC(=O)c2snnc2C2CC2)c(C)c1 [1-156] | B or more | B or more
7 | O=C(NCc1ccc(Cl)cc1)c1snnc1C1CC1 [1-56] | B or more | 
8 | COc1cc(C)nc(NC(=O)c2snnc2C2CC2)n1 [1-176] | B or more | B or more
9 | Cc1ccc(C)c(CNC(=O)c2snnc2C2CC2)c1 [1-163] | B or more | 
10 | O=C(NCc1cnc(Cl)s1)c1snnc1C1CC1 [1-185] | B or more | 
11 | CC(OC(=O)c1snnc1C1CC1)c1ccccc1 (stereo not drawn) [1-41] | B or more | B or more
12 | CN(C)c1ccncc1.O=C(Nc1nc2ccc(Cl)cc2s1)c1snnc1C1CC1 [1-179] | B or more | B or more
13 | COc1cc(CNC(=O)c2snnc2C2CC2)cc(OC)c1 [1-168] | B or more | 
14 | COc1ccc(OC)c(CNC(=O)c2snnc2C2CC2)c1 [1-167] | B or more | B or more
15 | N#Cc1snnc1C1CC1 [3-1, 4-cyclopropyl-1,2,3-thiadiazole-5-carbonitrile] | B or more | B or more
16 | COc1cc(OC)nc(NC(=O)c2snnc2C2CC2)n1 [1-175] | B or more | B or more
17 | Cc1nc(-c2ccccc2NC(=O)c2snnc2C2CC2)no1 [1-182] | B or more | 
18 | CCc1cccc(CC)c1NC(=O)c1snnc1C1CC1 [1-152] | B or more | 
19 | O=c1oc(-c2snnc2C2CC2)nc2ccccc12 [2-1, 2-(4-cyclopropyl-1,2,3-thiadiazol-5-yl)-4-H-3,1-benzoxazin-4-one] | B or more | 

Row | Structure (SMILES) | Rank of control efficacy [1] | Rank of control efficacy [2]
20 | C=CCNC(=O)c1snnc1C1CC1 [1-145] | B or more | B or more
21 | CN(Cc1ccccc1)C(=O)c1snnc1C1CC1 [1-82] | B or more | B or more
22 | CSc1ccccc1NC(=O)c1snnc1C1CC1 [1-190] | B or more | B or more
23 | O=C(NCc1ccc(OCC(F)(F)F)cc1)c1snnc1C1CC1 [1-68] | B or more | B or more
24 | Cc1cccc(C)c1NC(=O)c1snnc1C1CC1 [1-151] | B or more | 
25 | O=C(NS(=O)(=O)c1ccc(Cl)cc1)c1snnc1C1CC1 [1-157] | B or more | 
26 | O=C(OCc1ccc(Cl)cc1Cl)c1snnc1C1CC1 [1-26] | B or more | 
27 | Cc1ccccc1COC(=O)c1snnc1C1CC1 [1-13] | B or more | B or more
28 | CCc1cccc(CC)c1N(C(=O)c1snnc1C1CC1)C(=O)c1snnc1C1CC1 [1-154] | B or more | 
29 | COc1ccc(NC(=O)c2snnc2C2CC2)cc1OC [1-97] | B or more | B or more
30 | Cc1ccc(Oc2ccc(CNC(=O)c3snnc3C3CC3)cc2)cc1 [1-65] | B or more | 
31 | COc1cccc(CNC(=O)c2snnc2C2CC2)c1OC [1-165] | B or more | B or more
32 | Cc1ccc(C(C)OC(=O)c2snnc2C2CC2)cc1 (stereo not drawn) [1-47] | B or more | 
33 | COc1ccc2nc(NC(=O)c3snnc3C3CC3)sc2c1 [1-180] | B or more | 
34 | O=C(NOCc1ccccc1)c1snnc1C1CC1 [1-113] | B or more | B or more
35 | CNC(=O)c1ccccc1NC(=O)c1snnc1C1CC1 [1-189] | B or more | B or more
36 | O=C(Nc1nnc(C(F)(F)F)s1)c1snnc1C1CC1 [1-112] | B or more | B or more
37 | O=C(Nc1nc2ccccc2s1)c1snnc1C1CC1 [1-111] | B or more | B or more
38 | O=C(NS(=O)(=O)C(F)(F)F)c1snnc1C1CC1 [1-122] | B or more | 

Row | Structure (SMILES) | Rank of control efficacy [1] | Rank of control efficacy [2]
39 | O=C(Nc1cccc2c1C(=O)OC2)c1snnc1C1CC1 [1-186] | B or more | 
40 | O=C(NCc1ccc(Oc2ccc(C(F)(F)F)cc2)cc1)c1snnc1C1CC1 [1-66] | B or more | 
41 | Cc1ccc(COC(=O)c2snnc2C2CC2)cc1 [1-15] | B or more | B or more
42 | O=C(Nc1nc2ccc(Cl)cc2s1)c1snnc1C1CC1 [1-178] | B or more | B or more
43 | COc1ccccc1COC(=O)c1snnc1C1CC1 [1-16] | B or more | B or more
44 | COc1ccc(CNC(=O)c2snnc2C2CC2)cc1 [1-62] | B or more | B or more
45 | Cc1nsc(NC(=O)c2snnc2C2CC2)c1Br [1-174] | B or more | 
46 | CCOC(=O)c1sc(NC(=O)c2snnc2C2CC2)nc1C [1-173] | B or more | B or more
47 | O=C(Nc1nc(-c2ccccc2)cs1)c1snnc1C1CC1 [1-170] | B or more | B or more
48 | O=C(NS(=O)(=O)c1ccccc1Cl)c1snnc1C1CC1 [1-158] | B or more | 
49 | Cc1cc(C)nc(NC(=O)c2snnc2C2CC2)n1 [1-177] | B or more | B or more
50 | O=C(OCc1ccccc1Cl)c1snnc1C1CC1 [1-10, (2-chlorobenzyl)4-cyclopropyl-1,2,3-thiadiazole-5-carboxylate] | B or more | B or more
51 | Cc1ccc(CNC(=O)c2snnc2C2CC2)cc1 [1-59] | B or more | 
52 | CC(C)c1nnsc1C(=O)OCc1ccccc1 [II, benzyl 4-isopropyl-1,2,3-thiadiazole-5-carboxylate, reference compound] | C (Control efficacy 79-60%) | 
53 | Cc1cccc(C)c1N(C(=O)c1snnc1C1CC1)C(=O)c1snnc1C1CC1 [1-153] | B or more | 
54 | CS(=O)(=O)NC(=O)c1snnc1C1CC1 [1-120] | B or more | 
55 | O=C(NCc1ccc(Cl)cc1Cl)c1snnc1C1CC1 [1-164] | B or more | 
56 | COC(c1ccc(NC(=O)c2snnc2C2CC2)cc1OC(C)C)(C(F)(F)F)C(F)(F)F [1-103] | B or more | 
